{"source": "patent US20170095440A1", "about": "“METHOD OF TREATING CANINE PANCREATITIS” (CK9, LLC, priority 2014, published 2017)", "key": {"[1]": {"system": "dogs with suspected chronic pancreatitis", "experiment": "Serum cTLI before and after treatment, clinical trial", "format": "in vivo, dog", "method": "Treatment effects on overall health status, quality of life, and clinical signs were also evaluated with serum biochemistry profiles, complete blood counts, and owner questionnaires.\nDogs were identified by screening current submissions to the Gastrointestinal Laboratory at Texas A&M indicative of pancreatitis (canine pancreas-specific lipase≧400 μg/L) using an immunoassay for measurement of canine pancreas-specific lipase in canine serum known as the spec CPL® Test (IDEXX, Laboratories). A number of potential study participants were directly referred to the investigator by veterinarians, based on positive pet-side SNAP cPL® Test (IDEXX Laboratories, Westbrook, Me., USA) results and concomitant clinical signs. After ascertaining individual suitability of a patient with the referring veterinarian, serum canine pancreas-specific lipase concentration, serum biochemistry profile, and complete blood count were evaluated or re-evaluated 12±4 days after collection of the initial sample submission to the Gastrointestinal Laboratory. Based on the assumption that consecutive canine pancreas-specific lipase elevations indicate chronic pancreatitis, enrollment was offered for patients with canine pancreas-specific lipase concentrations≧400 μg/L, serum triglyceride concentrations below 500 mg/dL, and no indication of hepatic, renal, or other organ disease. […] Owner consent was required prior to phlebotomy and for enrollment into the trial.\n[…] […] Individual patients were medicated for between 21 to 31 days.\nBlood samples were collected before beginning the treatment and after completion of the treatment period. Complete blood count (red blood cell count, hematocrit, mean corpuscular volume, mean corpuscular hemoglobin, mean corpuscular hemoglobin concentration, differential and absolute white blood cell count, red blood cell count, hemoglobin, platelet estimate, red blood cell morphology, white blood cell morphology, and hemoparasites) was evaluated at the Texas Veterinary Medical Diagnostic Laboratory (TVMDL). A serum chemistry profile with electrolytes (glucose, blood urea nitrogen, creatinine, calcium, phosphorus, albumin, total protein, total bilirubin, alkaline phosphatase, alanine amino transferase, aspartate amino transferase, γ-glutamyl transferase, cholesterol, triglycerides, globuline, sodium, potassium, and chloride) was performed on a SIRRUS analyzer (Stanbio, Boerne, Tex., USA). Serum concentrations of cPL (RI: 0-200 μg/L; Spec cPL® IDEXX Laboratories, Westbrook, Me., USA), cTLI (RI: 5.7-45.2 μg/L; Canine TLI DOUBLE ANTIBODY®, Siemens Healthcare Diagnostics, Los Angeles, Calif., USA), cobalamin (RI: 251-908 ng/L), and folate (RI: 7.7-24.4 μg/L; Immulite 2000®, Siemens Healthcare Diagnostics Inc., Deerfield, Ill., USA), canine specific C-reactive protein (RI: 0-7.6 mg/L, Tridelta Development Limited, Maynooth, CO. Kildare, Ireland), S100A12 (RI: 56-331 μg/L, Gastrointestinal Laboratory in-house radioimmunoassay), and TGF-β1 (RI: 38-72 ng/mL; Quantikine® ELISA, R&D Systems, Minneapolis, […]., USA) were performed at the Gastrointestinal Lab at Texas A&M University.\nPre-treatment and post-treatment results for all diagnostic tests were statistically analyzed using Prism 6 (GraphPad Software, La Jolla, Calif., USA). The D'Agostino-Pearson omnibus test was used to evaluate all datasets for Gaussian distribution. Groups were compared using a paired t-test for normally-distributed data sets and a Wilcoxon matched-pairs test when Gaussian distribution could not be assumed. Mean values and standard deviation are reported for data sets with Gaussian distribution. Median and minimum/maximum values are reported for data sets where Gaussian distribution could not be assumed. The significance threshold was set at p=0.05."}, "Beagle dogs": {"system": "Beagle dogs", "experiment": "Multiple-dose tolerance study, oral capsule 3 times a day for 14 days", "format": "in vivo, dog", "method": "The following parameters and end points were evaluated in the multiple-dose phase of this study: clinical signs, body weights, body weight changes, food consumption, electrocardiography, clinical pathology parameters (hematology, clinical chemistry, and urinalysis), and gross necropsy findings.\n3 male and 3 female Beagle dogs were received from Marshall BioResources, North Rose, N.Y. The animals were examined and weighed on the day following receipt. The rising-dose phase animals were 6 months old and weighed 7.5 kg and 8.3 kg at initiation of dosing. The multiple-dose phase animals were 7 months old and weighed 7.4 kg and 7.6 kg at initiation of dosing.\nFor the multiple-dose phase, the test article was administered to the appropriate animals 3 times a day in an oral capsule from Days 1 to 14. The doses were administered 8 hours±30 minutes apart. The dose amount for each animal was based on the most recent body weight measurement. The first day of dosing was designated as Day 1.\nCage side observations were performed once daily, beginning during Week −1 and throughout the dosing period. During the dosing period, these observations were performed 1 to 3 hours post the first daily dose. The animals were removed from the cage and a detailed clinical observation was performed weekly, beginning during Week −1. Each animal was weighed on the day of randomization and Days 1, 4, 8, 11, and 15. A fasted weight was recorded on the day of necropsy. Food consumption was quantitatively measured for each animal daily, starting Week −1, throughout the dosing period, except for on the day of scheduled euthanasia.\nElectrocardiogram (ECG) measurements were obtained from all animals using leads I, II, III, aVR, aVL, and aVF and a chart speed of 50 mm/second. The ECG measurements were obtained once on Day −1 (pretreatment) and Day 14 (approximately 3 hours post the first daily dose). Only lead II was evaluated by a board-certified veterinary cardiologist.\nBlood was collected by venipuncture of the jugular vein. Urine was collected overnight by cage pan drainage. After collection, samples were transferred to the clinical pathology laboratory for processing. The animals were fasted overnight prior to scheduled clinical pathology sample collections, but had access to water ad libitum. Samples were collected according to Table 10.\nMultiple-dose phase animals surviving until scheduled euthanasia were weighed, samples for evaluation of clinical pathology parameters were collected as specified above, and the animals were euthanized by sodium pentobarbital injection, followed by exsanguination. Animals were fasted (overnight) before their scheduled necropsy.\nMultiple-dose phase animals were subjected to a complete necropsy examination, which included evaluation of the carcass and musculoskeletal system; all external surfaces and orifices; cranial cavity and external surfaces of the brain; and thoracic, abdominal, and pelvic cavities with their associated organs and tissues. Necropsy examinations were conducted under the supervision of a board-certified veterinary pathologist."}, "[2]": {"conditions": "Day 15 vs pretest, 200 mg/kg/day, methanesulfonate, 200 mg/kg/day"}}, "note": "Where “and” joins values, the source holds several entries; their conditions need not be identical. Equal entries are not always repeated. Entries after “also recorded” stand apart in the source; their conditions may differ.", "data": [{"smiles": "CN(C)C(=O)COC(=O)Cc1ccc(OC(=O)c2ccc(NC(=N)N)cc2)cc1", "note": "[Camostat Mesilate, N,N-dimethylcarbamoylmethyl-4-(4-guanidinobenzoyloxy)phenylacetate methanesulfonate]", "values": [{"measurement": "Change in serum cTLI, pre- vs post-treatment", "setting": "[1]; 4 mg/kg q 8 hrs, n=11, methanesulfonate", "result": "no significant difference; also recorded: did not change significantly"}, {"measurement": "Serum cTLI concentration post-treatment (median)", "setting": "[1]; 4 mg/kg q 8 hrs, n=11, pre-treatment median 22, post range 17-55, p=0.8311", "result": 28, "unit": "µg/L"}, {"measurement": "Change in serum cTLI, pre- vs post-treatment", "setting": "[1]; 8 mg/kg q 8 hrs, n=17, methanesulfonate", "result": "no significant difference; also recorded: No significant changes"}, {"measurement": "Serum cTLI concentration post-treatment (median)", "setting": "[1]; 8 mg/kg q 8 hrs, n=17, pre-treatment median 35, p=0.1594, methanesulfonate", "result": "22 µg/L and 24 µg/L"}, {"measurement": "Change in serum cTLI, pre- vs post-treatment", "setting": "[1]; all treated dogs combined, n=28, methanesulfonate", "result": "no significant difference; also recorded: No significant changes"}, {"measurement": "Serum cTLI concentration post-treatment (median)", "setting": "[1]; all treated dogs combined, n=28, pre-treatment median 32, post range 6-81, p=0.2098", "result": 25, "unit": "µg/L"}, {"measurement": "Survival", "setting": "Beagle dogs; 200 mg/kg/day (66.7 mg/kg/dose 3 times a day), 14 days, 1 male and 1 female, methanesulfonate", "result": "No animals died; also recorded: All animals survived to scheduled euthanasia"}, {"measurement": "Body weight, overall conclusion", "setting": "Beagle dogs; 200 mg/kg/day, 14 days", "result": "body weight loss"}, {"measurement": "Food consumption", "setting": "Beagle dogs; 200 mg/kg/day, 14 days", "result": "no notable changes"}, {"measurement": "Gross necropsy findings", "setting": "Beagle dogs; Day 15, 200 mg/kg/day", "result": "no gross necropsy findings"}, {"measurement": "Hematology parameters", "setting": "Beagle dogs; [2]", "result": "no toxicologically meaningful changes; also recorded: no notable changes"}, {"measurement": "Urinalysis parameters", "setting": "Beagle dogs; [2]", "result": "no toxicologically meaningful changes; also recorded: no notable changes"}, {"measurement": "High-dose level chosen from the tolerance study", "setting": "Beagle dogs; dogs, oral, 3 times per day", "result": 200, "unit": "mg/kg/day"}, {"measurement": "Body weight change Days 1 to 15", "setting": "Beagle dogs; female, 200 mg/kg/day, 14 days", "result": "−2.7", "unit": "%"}, {"measurement": "Clinical observations", "setting": "Beagle dogs; female, 200 mg/kg/day, 14 days", "result": "clear ocular discharge and single occurrences of vomitus and mucoid feces"}, {"measurement": "Clinical chemistry, potential test article-related changes", "setting": "Beagle dogs; male and female, Day 15, 200 mg/kg/day, methanesulfonate, 200 mg/kg/day", "result": "increased creatinine and γ-glutamyl transferase; also recorded: increases in creatinine and γ-glutamyl transferase"}, {"measurement": "Body weight change Days 1 to 15", "setting": "Beagle dogs; male, 200 mg/kg/day, 14 days", "result": "−9.2", "unit": "%"}, {"measurement": "Clinical observations", "setting": "Beagle dogs; male, 200 mg/kg/day, 14 days", "result": "thin appearance and a single occurrence of vomitus"}]}]}
